In patent publication US10563204B2, “Methods of treating cancer harboring hemizygous loss of TP53” (priority 2015, dated 2020):
Converted amounts (≈) assume the structure as drawn. Numbered stars: 1 amine (or outer) side, 2 acyl side, 3 side chain; on linkers, the order of the positions; unused ones are H or OH. Bridge positions count the residues as written; N and C are the ends. Square brackets hold non-standard residues; d marks the D form. Peptide text beside a SMILES is read from it. I, II: the chains in the order shown. Actinocin(9to1) = Cc1c2oc3c(C)ccc(C(=O)[*:1])c3nc-2c(C(=O)[*:2])c(N)c1=O; NMeV = CN[C@H](C(=O)O)C(C)C; Sar = CNCC(=O)O

Experiments:
[1] = tested on: POLR2A^neutral cells (HCT116, SW480); assay: Cell proliferation and survival assay, POLR2A^neutral colorectal cancer cells; assay type: cell-based, human
Description: (§1) Equal numbers of cells were plated in 12-well plates in triplicate. Cells were fixed with 10% methanol and stained with 0.1% crystal violet (dissolved in 10% methanol) at indicated times. After staining, wells were washed three times with PBS and destained with acetic acid. The absorbance of the crystal violet solution was measured at 590 nm. For cell survival assay, cells were seeded at a concentration of 1,000 cells per well in 96-well plates and treated with indicated concentrations of α-Amanitin or actinomycin D 24 hours later. Cell viability was quantified using WST-1 reagent (Roche) according to the manufacturer's instructions. All experiments were performed in triplicate.

[2] = tested on: POLR2A^loss cells (SW837, SNU283); assay: Cell proliferation and survival assay, POLR2A^loss colorectal cancer cells; assay type: cell-based, human
Description: as §1

[3] = tested on: POLR2A^loss HCT116 cells; assay: Cell proliferation and survival assay, isogenic HCT116 cells with hemizygous loss of POLR2A (CRISPR/Cas9); assay type: cell-based, human
Description: as §1
To exclude the effects of various genetic backgrounds across cell lines, the CRISPR (clustered regularly interspaced short palindromic repeat)/Cas9 system was employed to generate an isogenic HCT116 cell line with hemizygous loss of POLR2A (Wang et al., 2014; Wang et al., 2013). Two single-guide RNAs (sgRNAs) were designed to target the second exon of the POLR2A gene (FIG. 9A). Both of them efficiently targeted and disrupted the POLR2A gene, as shown in the Surveyor analysis (FIG. 9B). Single colonies of HCT116 cells bearing mono-allelic deletion of POLR2A were selected and verified by DNA sequencing (FIG. 9C). Small deletion in the targeted region led to open reading frame shift, producing only a short stretch of the N-terminal peptide without all functional domains of POLR2A. […] However, hemizygous deletion of POLR2A dramatically sensitized HCT116 cells to α-Amanitin treatment with an IC50 of ˜0.1 μg ml^−1, which is 8-fold lower than that of parental HCT116 cells (FIGS. 2G and 2H). […] POLR2A^loss and POLR2A^neutral HCT116 cells expressing Dox-inducible POLR2A shRNA were also generated. […] While a low-dose of Dox (100 ng ml^−1) was sufficient to remarkably kill the POLR2A^loss cells, high doses of Dox only had minimal effects on the POLR2A^neutral cells (FIGS. 2I, 2J, and 9H).

[4] = tested on: xhCRC and HCT116 cells; assay: Sensitivity of isogenic xhCRC and HCT116 cells (TP53 / POLR2A hemizygous deletion) to α-Amanitin; assay type: cell-based, human
Description: as §1
(§2) Blockage of RNA polymerase may lead to p53 accumulation and activation (Derheimer et al., 2007). To examine the effects of p53 on cell response to POLR2A inhibition, the concomitant deletion of TP53 and POLR2A was recapitulated in HCT116 and xhCRC cell lines (FIGS. 3A and 10A-10C). […] The RNA polymerase II is in charge of mRNA synthesis, an essential function for any type of cells including therapy-resistant tumor cells. The drug sensitivity of POLR2A^neutral and POLR2A^loss cells to three major chemotherapy drugs for colorectal cancer (5-fluorouracil (5-FU), oxaliplatin, and SN-38) was examined. […]

[5] = tested on: POLR2A^loss xhCRC cells; assay type: cell-based, human; conditions: α-Amanitin combined with each of the three drugs
Description: as §1, §2

[6] = tested on: POLR2A^neutral xhCRC cells; assay type: cell-based, human; conditions: α-Amanitin combined with each of the three drugs
Description: as §1, §2

[7] = target: OATP1B3 (Homo sapiens, UniProt Q9NPD5); conditions: free α-Amanitin; transporter on hepatocyte membrane; cited from earlier work
OATP1B3, sequence (Q9NPD5 whole entry): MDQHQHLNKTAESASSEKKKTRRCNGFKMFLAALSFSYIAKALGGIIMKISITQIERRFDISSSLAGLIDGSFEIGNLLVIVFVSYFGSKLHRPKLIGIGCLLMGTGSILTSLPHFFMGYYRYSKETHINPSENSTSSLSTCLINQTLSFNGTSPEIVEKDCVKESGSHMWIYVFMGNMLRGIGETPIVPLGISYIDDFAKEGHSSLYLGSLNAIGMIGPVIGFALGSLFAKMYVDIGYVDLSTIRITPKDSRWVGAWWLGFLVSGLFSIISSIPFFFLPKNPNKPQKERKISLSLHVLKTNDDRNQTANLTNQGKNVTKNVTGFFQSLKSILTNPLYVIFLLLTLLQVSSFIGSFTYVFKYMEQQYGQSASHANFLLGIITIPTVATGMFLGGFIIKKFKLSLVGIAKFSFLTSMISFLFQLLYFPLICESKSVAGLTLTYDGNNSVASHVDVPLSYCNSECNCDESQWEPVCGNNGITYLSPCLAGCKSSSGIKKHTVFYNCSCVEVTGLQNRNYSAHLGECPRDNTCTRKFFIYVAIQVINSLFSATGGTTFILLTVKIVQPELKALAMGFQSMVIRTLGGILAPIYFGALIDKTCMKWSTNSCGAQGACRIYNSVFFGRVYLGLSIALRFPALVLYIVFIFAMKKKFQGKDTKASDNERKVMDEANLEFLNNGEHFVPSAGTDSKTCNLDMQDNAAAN

[8] = free α-Amanitin; cited from earlier work

Compound	half-maximum inhibitory concentration (IC50) ([1]; POLR2A^neutral cells (HCT116, SW480))	cell growth / cell death at high concentrations ([1]; ≥1 μg ml^−1, HCT116, SW480)	resistance to α-Amanitin after re-expression of exogenous POLR2A ([2]; SNU283 and SW837 re-expressing exogenous POLR2A, level comparable to HCT116 and SW480)	cell-killing effect compared with POLR2A^neutral cells ([2]; concentrations from 0 to 1.0 μg ml^−1)	IC50 of POLR2A^neutral cells relative to that of POLR2A^loss cells ([2]; neutral (HCT116, SW480) vs loss (SW837, SNU283))	cell growth / cell death at high concentrations ([2]; ≥1 μg ml^−1, SW837, SNU283)	IC50 ([3]; HCT116 with hemizygous deletion of POLR2A)	IC50 lower than that of parental HCT116 cells ([3]; POLR2A^loss vs parental HCT116)	change in sensitivity to α-Amanitin ([4]; cells with hemizygous deletion of TP53)	change in sensitivity to α-Amanitin ([4]; cells with hemizygous loss of POLR2A, regardless of TP53 status)	effect on cell killing by 5-FU, oxaliplatin and SN-38 [5]	effect on cell killing by 5-FU, oxaliplatin and SN-38 [6]	binding by OATP1B3 [7]	liver toxicity [8]	sensitivity compared with POLR2A^neutral cells ([2]; actinomycin D treatment)	difference in sensitivity between POLR2A^loss and POLR2A^neutral HCT116 cells ([3]; actinomycin D)
CC[C@H](C)[C@@H]1NC(=O)CNC(=O)[C@@H]2Cc3c([nH]c4cc(O)ccc34)[S+]([O-])C[C@@H](NC(=O)CNC1=O)C(=O)N[C@@H](CC(N)=O)C(=O)N1C[C@H](O)C[C@H]1C(=O)N[C@@H]([C@@H](C)[C@@H](O)CO)C(=O)N2 (stereo in doubt) [α-Amanitin]	~1.0 µg/mL	complete cell death	restored their resistance	significantly higher levels of cell-killing effect	10 fold	complete cell death	~0.1 µg/mL (≈ 0.109 µM)	8 fold	no significant changes	markedly sensitized	significantly enhanced cell-killing effects	no notable effects	specifically bound	toxic to liver		
Cc1c2oc3c(C)ccc(C(=O)N[C@@H]4C(=O)N[C@H](C(C)C)C(=O)N5CCC[C@H]5C(=O)N(C)CC(=O)N(C)[C@@H](C(C)C)C(=O)O[C@@H]4C)c3nc-2c(C(=O)N[C@@H]2C(=O)N[C@H](C(C)C)C(=O)N3CCC[C@H]3C(=O)N(C)CC(=O)N(C)[C@@H](C(C)C)C(=O)O[C@@H]2C)c(N)c1=O [actinomycin D] (I: T[dV]P[Sar][NMeV] / II: T[dV]P[Sar][NMeV]; ester I:1-I:C, II:1-II:C; linker I:N-II:N via Actinocin(9to1))															did not show any greater sensitivity	no substantial difference
